The data set is classed as physicochemical. The method, then:
To this salt, 0.5 ml of water was added, followed by stirring at room temperature for 4 hours, after which the liquid was filtered through a 0.2 μm filter and quantified by HPLC. The peptide B and 3-hydroxy-2-naphthoic acid concentrations were 2.37 g/l and 0.751 g/l, respectively.

Where two headings read alike, the source gives them in different places.

As for `CCNC(=O)[C@@H]1CCCN1C(=O)[C@H](CCCNC(=N)N)NC(=O)[C@H](CC(C)C)NC(=O)[C@@H](CC(C)C)NC(=O)[C@H](Cc1ccc(O)cc1)NC(=O)[C@H](CO)NC(=O)[C@H](Cc1c[nH]c2ccccc12)NC(=O)[C@H](Cc1c[nH]cn1)NC(=O)[C@@H]1CCC(=O)N1`, the “water solubility relative to the water solubility of the acetate of peptide B” value is “not more than 1/100”. For the same compound, the solubility (3-hydroxy-2-naphthoic acid concentration in saturated aqueous solution (water solubility of the salt)) stood at 0.751 mg/mL. Moreover, the solubility (peptide B concentration in saturated aqueous solution (water solubility of the salt)) turned out to be 2.37 mg/mL.

Where the note is “water solubility”, `CCNC(=O)[C@@H]1CCCN1C(=O)[C@H](CCCNC(=N)N)NC(=O)[C@H](CC(C)C)NC(=O)[C@@H](CC(C)C)NC(=O)[C@H](Cc1ccc(O)cc1)NC(=O)[C@H](CO)NC(=O)[C@H](Cc1c[nH]c2ccccc12)NC(=O)[C@H](Cc1c[nH]cn1)NC(=O)[C@@H]1CCC(=O)N1` [acetate of peptide B, reference compound] showed a solubility of at least 1000 mg/mL.

The term solubility denotes the concentration that dissolves in the medium under given conditions.
